According to patent publication US6218400A, “Treatment method using a cGMP-Specific PDE inhibitor” (ICOS Corporation, priority 1995, dated 2001):

How the values were obtained:
[1] = test system: conscious spontaneously hypertensive rats (SHRs); assay: Hypotensive effects in conscious spontaneously hypertensive rats; format: in vivo, rat; conditions: AUC from 0 to 5 hours
Experimental: The hypotensive effects of compounds according to the invention as identified in Table 2 were studied in conscious spontaneously hypertensive rats (SHRs). The compounds were administered orally at a dose of 5 or 10 mg/kg in a mixture of 5% DMF and 95% olive oil, or i.v. at a dose of 10 mg/kg in a mixture of 40% dimethylformamide, 25% tetraglycol, and […]. Blood pressure was measured from a catheter inserted in the carotid artery and recorded for 5 hours after administration. The results are expressed as Area Under the Curve (AUC from 0 to 5 hours, mmHg.hour) of the fall in blood pressure over time.

[2] = test system: Rat aortic smooth muscle cells (RSMC); assay: cGMP level measurements in rat aortic smooth muscle cells (RSMC); format: cell-based; conditions: 10 min, cGMP after ANF (100 nM) stimulation for 10 minutes, dose giving half of the stimulation at saturating concentrations
Experimental: Rat aortic smooth muscle cells (RSMC) prepared according to Chamley et al. in Cell Tissue Res. 177, 503-522 (1977) were used between the 10th and 25th passage at confluence in 24-well culture dishes. Culture media was aspirated and replaced with PBS (0.5 ml) containing the compound tested at the appropriate concentration. After 30 minutes at 37° C., particulates guanylate cyclase was stimulated by addition of ANF (100 nM) for 10 minutes. At the end of incubation, the medium was withdrawn and two extractions were performed by addition of 65% ethanol (0.25 ml). The two ethanolic extracts were pooled and evaporated until dryness, using a Speed-vac system. c-GMP was measured after acetylation by scintillation proximity immunoassay ([…]). The EC50 values are expressed as the dose giving half of the stimulation at saturating concentrations

[3] = target: human recombinant PDE V (Homo sapiens, UniProt O76074); assay: Inhibitory effect on cGMP-PDE (one-step assay, human recombinant PDE V); format: biochemical; conditions: 0.15 μM 8-[H^3]-cGMP, 2% DMSO, 30 minutes
Experimental: cGMP-PDE activity of compounds of the present invention was measured using a one-step assay adapted from Wells at al. (Wells, J. N., Baird, C. E., Wu, Y. J. and Hardman, J. G., Biochim. Biophys. Acta 384, 430 (1975)). The reaction medium contained 50 mM Tris-HCl,pH 7.5, 5 mM Mg-acetate, 250 μg/ml 5'-Nucleotidase, 1 mM EGTA and 0.15 μM 8-[H^3 ]-cGMP. The enzyme used was a human recombinant PDE V (ICOS, Seattle USA).
Compounds of the invention were dissolved in DMSO finally present at 2% in the assay.

Row | EC50 [2] | IC50 [3] | SMILES | AUC of the fall in blood pressure over time ([1]; dosed at 5 mg/kg p.o.) | AUC of the fall in blood pressure over time ([1]; dosed at 10 mg/kg i.v.)
1 | 300 nM | < 10 nM | O=C1[C@H]2Cc3c([nH]c4ccccc34)[C@H](c3ccc4c(c3)OCO4)N2C(=O)N1Cc1ccccc1 (relative stereo) [1 (cis isomer), Cis-2-benzyl-5-(3,4-methylenedioxyphenyl)-5,6,11,11a-tetrahydro-1H-imidazo [1',5':1,6]pyrido[3,4-b]indole-1,3(2H)-dione] | 104 mmHg·h | 
2 | 300 nM | 7 nM | COc1ccc([C@H]2c3[nH]c4ccccc4c3C[C@@H]3C(=O)N(C4CCCCC4)C(=O)N23)cc1 (relative stereo) [26 (cis isomer), Cis-2-cyclohexyl-5-(4-methoxyphenyl)-5,6,11,11a-tetrahydro-1H-imidazo [1',5':1,6] pyrido[3,4-b]indole-1,3(2H)-dione] |  | 117 mmHg·h
3 | < 1000 nM |  | CCCCN1C(=O)[C@@H]2Cc3c([nH]c4ccccc34)[C@H](c3ccc(OC)cc3)N2C1=O (relative stereo) [Example 10, Trans-2-butyl-5-(4-methoxyphenyl)-5,6,11,11a-tetrahydro-1H-imidazo [1',5':1,6] pyrido[3,4-b]indole-1,3(2H)-dione] |  | 147 mmHg·h
4 | 200 nM | < 10 nM | O=C1[C@H]2Cc3c([nH]c4ccccc34)[C@@H](c3ccc4c(c3)OCO4)N2C(=O)N1Cc1ccccc1 [Example 32, (5R,11aR)-2-benzyl-5-(3,4-methylenedioxyphenyl)-5,6,11,11a-tetrahydro-1H-imidazo [1',5':1,6]pyrido[3,4-b]indole-1,3(2H)-dione] | 65 mmHg·h | 
